Columns and labels:
[1] = parameters: method as in PMID 26042808; conditions: cited from earlier work
[2] = system: NIH 3T3 (Mouse Swiss Albino embryo fibroblast) cells; assay: Basal cytotoxicity test (neutral red uptake) with estimation of LD50 from IC50; assay type: cell-based; conditions: category by estimated LD50 (mg/kg)
Description: The neutral red uptake (NRU) assay was performed according to the standard protocol of Stokes modified by NICEATM-ECVAM validation study. The NRU cytotoxicity assay procedure was based on the ability of viable cells to incorporate and bind neutral red, which is a supravital dye.
NIH 3T3 (Mouse Swiss Albino embryo fibroblast) cells (9000 cells/well) were placed into 96-well plates for 24 h in DMEM medium containing 5% fetal bovine serum (FBS). Then, they were exposed to the test compound over a range of seven concentrations (1000 μg/mL, 316 μg/mL, 100 μg/mL, 31 μg/mL, 10 μg/mL, 3.0 μg/mL, and 1.0 μg/mL) for 24 h. Untreated cells were used as a control. After 24 h, the medium was removed from all plates. Then, 250 μL of neutral red (NR) solution was added (0.05 mg/mL NR in DMEM 24 h pre-incubated at 37 °C and then filtered before use through a 0.22-µm syringe filter). Plates were incubated for 3 h, and then, cells were washed three times with phosphate buffered saline (PBS). The dye within viable cells was released by extraction with a mixture of acetic acid, ethanol, and water (1:50:49). The absorbance of neutral red was measured using a spectrophotometer multiplate reader Infinite M1000 (Tecan Austria GmbH, Salzburg, Austria) at 540 nm. The optical density (OD) was calculated using the formula: OD (treated cells) × 100/OD (control cells). The IC50 values were calculated using the program Graph Pad Prism® 3.0.
Data from the in vitro tests were used for estimating the starting dose for acute oral systemic toxicity tests in rodent. The in vivo starting dose is an estimated LD50 value that is calculated by inserting the in vitro IC50 value into a regression formula: log LD50 (mM/kg) = 0.439 log IC50 (mM) + 0.621 [29]. The value is recalculated to mg/kg, and compounds are evaluated in accordance with four toxicity categories: category 1: LD50 ≤ 5 mg/kg (highly toxic); category 2: 5 < LD50 ≤ 50 mg/kg (moderately toxic); category 3: 50 < LD50 ≤ 300 mg/kg (slightly toxic); category 4: 300 < LD50 ≤ 2000 mg/kg (practically non-toxic). Using an alternative in vitro method enables comparing the possible toxicity of new compounds and selecting compounds for further study, which will vastly reduce the number of animal experiments.

[3] = system: DPPC (1,2-dipalmitoyl-sn-glycero-3-phosphocholine) vesicles with DPH probe; assay: Phospholipid binding assay (quenching of DPH fluorescence); conditions: DPPC 2 × 10^−5 M, DPH 5 × 10^−6 M, 1,4-DHP 5 × 10^−5 M
Description: Binding studies of the 4-(N-alkylpyridinium)-1,4-DHP derivatives 1–11 with phospholipid were carried out in Tris-buffered saline (TBS) buffer (10 mM of Tris, 150 mM of NaCl, pH 7.4) by a fluorescence probe technique using a modified protocol described by Ma et al.. Briefly, 1,2-dipalmitoyl-sn-glycero-3-phosphocholine (DPPC) vesicles dispersed in TBS buffer were prepared by sonication of the lipid solution using a probe sonifier for 30 min. The concentration of DPPC stock solution was 6 × 10^−5 M; the concentration of the stock solutions of the 4-(N-alkylpyridinium)-1,4-DHP derivatives were 1.5 × 10^−4 M.
To characterise the hydrophobic interaction between the 1,4-DHP and phospholipids, 1,6-diphenyl-1,3,5-hexatriene (DPH) was used as a fluorescence probe. […]
Mixtures containing 40 µL of DPPC stock solution (6 × 10^−5 M) and 40 µL of DPH diluted stock solution (15 × 10^−6 M) were incubated at 50 °C for 0.5 h in the dark; then, an aliquot of 4-(N-alkylpyridinium)-1,4-DHP derivatives was added with the following incubation at 50 °C for 0.5 h in the dark, after which samples were cooled to room temperature and the fluorescence intensity was measured by a Tecan multiplate reader Infinite1000 (Tecan Austria GmbH, Salzburg, Austria). […]

[4] = system: transgenic Alzheimer's disease female mice; parameters: method as in PMID 27345857; conditions: cited from earlier work

CCCCCCCCCCCC[n+]1cccc(C2C(C(=O)OCC)=C(C)NC(C)=C2C(=O)OCC)c1 [Compound 3]
Blood–brain barrier crossing [1]: crossed the blood–brain barrier
Toxicity category from estimated LD50 [2]: non-toxic
Quenching of the fluorescence of the DPH-DPPC system [3]: lowest relative fluorescence intensity
Memory-improving anxiolytic effects [4]: memory-improving anxiolytic effects

Source: article PMC6470589, “Contribution of Molecular Structure to Self-Assembling and Biological Properties of Bifunctional Lipid-Like 4-(N-Alkylpyridinium)-1,4-Dihydropyridines” (Pharmaceutics, 2019)
